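48-hour exposure; five concentrations; linearly interpolated endpoints. GI50: concentration for 50% inhibition of growth. TGI: concentration producing complete growth inhibition.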
Legend:
Experiment in all cases: NCI-60 cell line screen, 48 h
PC-3 prostate = tested on: PC-3 prostate
SK-MEL-5 melanoma = tested on: SK-MEL-5 melanoma
SF-268 CNS = tested on: SF-268 CNS
HT29 colon = tested on: HT29 colon
OVCAR-5 ovarian = tested on: OVCAR-5 ovarian
786-0 renal = tested on: 786-0 renal
BT-549 breast = tested on: BT-549 breast
MDA-MB-468 breast = tested on: MDA-MB-468 breast
OVCAR-3 ovarian = tested on: OVCAR-3 ovarian
NCI-H226 lung = tested on: NCI-H226 lung
SN12C renal = tested on: SN12C renal
SNB-75 CNS = tested on: SNB-75 CNS
MDA-MB-231 breast = tested on: MDA-MB-231 breast
SK-MEL-28 melanoma = tested on: SK-MEL-28 melanoma
NCI/ADR-RES ovarian = tested on: NCI/ADR-RES ovarian
SW-620 colon = tested on: SW-620 colon
RPMI-8226 leukemia = tested on: RPMI-8226 leukemia
NCI-H460 lung = tested on: NCI-H460 lung
HCT-15 colon = tested on: HCT-15 colon
OVCAR-4 ovarian = tested on: OVCAR-4 ovarian
KM12 colon = tested on: KM12 colon
MALME-3M melanoma = tested on: MALME-3M melanoma
RXF 393 renal = tested on: RXF 393 renal
EKVX NSCLC = tested on: EKVX NSCLC
SF-539 CNS = tested on: SF-539 CNS
MDA-MB-435 = tested on: MDA-MB-435
CCRF-CEM leukemia = tested on: CCRF-CEM leukemia
OVCAR-8 ovarian = tested on: OVCAR-8 ovarian
T-47D breast = tested on: T-47D breast
HCC-2998 colon = tested on: HCC-2998 colon

OCCCNc1oc(-c2ccccc2)nc1[P+](c1ccccc1)(c1ccccc1)c1ccccc1
GI50 (PC-3 prostate): 1.6 µM
TGI (PC-3 prostate): 9 µM
GI50 (SK-MEL-5 melanoma): 1.15 µM
TGI (SK-MEL-5 melanoma): 2.38 µM
GI50 (SF-268 CNS): 2.76 µM
TGI (SF-268 CNS): 11.8 µM
GI50 (HT29 colon): 2.45 µM
TGI (HT29 colon): 13.3 µM
GI50 (OVCAR-5 ovarian): 3.42 µM
TGI (OVCAR-5 ovarian): 15.5 µM
GI50 (786-0 renal): 5.72 µM
TGI (786-0 renal): 20 µM
GI50 (BT-549 breast): 1.87 µM
TGI (BT-549 breast): 6.03 µM
GI50 (MDA-MB-468 breast): 0.337 µM
TGI (MDA-MB-468 breast): 1.97 µM
GI50 (OVCAR-3 ovarian): 1.44 µM
TGI (OVCAR-3 ovarian): 8.15 µM
GI50 (NCI-H226 lung): 2.44 µM
TGI (NCI-H226 lung): 9.8 µM
GI50 (SN12C renal): 2.61 µM
TGI (SN12C renal): 7.59 µM
GI50 (SNB-75 CNS): 1.3 µM
TGI (SNB-75 CNS): 5.38 µM
GI50 (MDA-MB-231 breast): 1.72 µM
TGI (MDA-MB-231 breast): 4.84 µM
GI50 (SK-MEL-28 melanoma): 2.09 µM
TGI (SK-MEL-28 melanoma): 11 µM
GI50 (NCI/ADR-RES ovarian): > 100 µM
TGI (NCI/ADR-RES ovarian): > 100 µM
GI50 (SW-620 colon): 3.29 µM
TGI (SW-620 colon): 15.2 µM
GI50 (RPMI-8226 leukemia): 0.41 µM
TGI (RPMI-8226 leukemia): 10.2 µM
GI50 (NCI-H460 lung): 2.61 µM
TGI (NCI-H460 lung): 11.3 µM
GI50 (HCT-15 colon): 13.7 µM
TGI (HCT-15 colon): 28.1 µM
GI50 (OVCAR-4 ovarian): 2.37 µM
TGI (OVCAR-4 ovarian): 15.7 µM
GI50 (KM12 colon): 2.13 µM
TGI (KM12 colon): 7.15 µM
GI50 (MALME-3M melanoma): 1.57 µM
TGI (MALME-3M melanoma): 5.38 µM
GI50 (RXF 393 renal): 1.23 µM
TGI (RXF 393 renal): 5.79 µM
GI50 (EKVX NSCLC): 2.81 µM
TGI (EKVX NSCLC): 13.6 µM
GI50 (SF-539 CNS): 3.86 µM
TGI (SF-539 CNS): 14.4 µM
GI50 (MDA-MB-435): 2.26 µM
TGI (MDA-MB-435): 10 µM
GI50 (CCRF-CEM leukemia): 2.46 µM
TGI (CCRF-CEM leukemia): 13.5 µM
GI50 (OVCAR-8 ovarian): 2.84 µM
TGI (OVCAR-8 ovarian): 10.7 µM
GI50 (T-47D breast): 1.26 µM
TGI (T-47D breast): 6.72 µM
GI50 (HCC-2998 colon): 2.95 µM

Source: PubChem BioAssay (NCI)
